Experimental data taken from patent US5686637A, “Antifungal agent” (Merck & Co., Inc., priority 1995, dated 1997).
Converted amounts (≈) assume the structure as drawn.

Tests used:
[1] = test system: C. pseudotropicalis (MY 2099); assay: microbroth dilution assay (MIC/MFC), C. pseudotropicalis (MY 2099); format: cell-based, Candida pseudotropicalis; conditions: Kluyveromyces marxianus, 24 h
Procedure: (§1) In the microbroth dilution assay, microorganisms were selected by streaking a yeast culture on Sabouraud dextrose agar (SDA) incubating for 24-48 hours at 35°-37° C., thereafter selected 3 to 5 characteristic colonies and transferring to a fresh plate and incubating under similar conditions. From the regrowth, 3 to 5 colonies were selected and suspended in. 10 milliliters of YM broth (Dffco) and incubated for 4 hours at 35°-37° C. shaking at 225 rpm. The 4 hour broth cultures were adjusted optically to 86% transmission resulting in a concentration of 1-5×10^6 cfu/ml which was further diluted 1:100 in YNBD (yeast nitrogen base with 1% dextrose) to obtain a concentration of 1-5×10^4 cfu/ml for use as inocula.
(§2) The test compound, Compound I, was prepared as a stock solution of 128 μg/ml in 20% methanol and 75 μl of said solution delivered to each well in column 1 of a 96-well, U-bottomed microtiter plate. The compounds in column 1 were then serially diluted two-fold to yield concentrations from 32 μg/ml to 0.15 μg/ml.
as §2, with “Amphotericin, the control” for “The test”, “compound,” for “compound, Compound I,”, “512” for “128”, “10% DMSO” for “20% methanol”, “128” for “32”, “0.6” for “0.15”
(§3) The plates containing the diluted compounds were then inoculated with 75 μl/well of the appropriate microorganism and incubated for 48 hours at 35°-37° C. with MIC (minimum inhibitory concentration) determinations carried out after 24 hours of incubation. Growth and sterility controls for each organism and sterility checks for the compounds also were carded out.
(§4) After recording MICs at 24 hours, the microtiter plates were shaken gently to resuspend the cells. A 1.5 μl sample was transferred from each well of the 96-well microtiter plate to a single reservoir inoculum plate containing SDA. The inoculated SDA and corresponding microtiter plates were incubated for 24 hours at 35°-37° C. For Cryptococus neoformans, SDA plates were inoculated at 48 hours after recording MICs and incubated 48 hours before reading the MFC. MFC is the lowest concentration of compound at which either no growth or growth of ≤4 colonies occur.

[2] = test system: Cryptococcus neoformans (MY 2062); assay: microbroth dilution assay (MIC), Cryptococcus neoformans (MY 2062); format: cell-based; conditions: Cryptococcus neoformans, 24 h, read-out: Minimum Inhibitory Concentration (MIC)
Procedure: as §1
as §2, with “μg/ml. […]” for “μg/ml.”
(§5) After recording MICs at 24 hours, the microtiter plates were shaken gently to resuspend the cells. […] For Cryptococus neoformans, SDA plates were inoculated at 48 hours after recording MICs and incubated 48 hours before reading the MFC. […]

A. fumigatus (5668) = assay: microbroth dilution assay (MIC), A. fumigatus (5668); format: cell-based; conditions: Aspergillus fumigatus, 24 h, read-out: Minimum Inhibitory Concentration (MIC)
Procedure: as §1
as §2, with “μg/ml. […]” for “μg/ml.”
as §5

[3] = test system: Saccharomyces cerevisiae (MY 2140); assay: microbroth dilution assay (MIC/MFC), Saccharomyces cerevisiae (MY 2140); format: cell-based; conditions: Saccharomyces cerevisiae, 24 h
Procedure: as §1, §2
as §2, with “Amphotericin, the control” for “The test”, “compound,” for “compound, Compound I,”, “512” for “128”, “10% DMSO” for “20% methanol”, “128” for “32”, “0.6” for “0.15”
as §3, §4

C. albicans (CA2) = assay: microbroth dilution assay (MIC/MFC), C. albicans (CA2); format: cell-based; conditions: Candida albicans, 24 h
Procedure: as §1, §2
as §2, with “Amphotericin, the control” for “The test”, “compound,” for “compound, Compound I,”, “512” for “128”, “10% DMSO” for “20% methanol”, “128” for “32”, “0.6” for “0.15”
as §3, §4

[4] = test system: Candida albicans (MY 1055); assay: microbroth dilution assay (MIC/MFC), Candida albicans (MY 1055); format: cell-based; conditions: Candida albicans, 24 h
Procedure: as §1, §2
as §2, with “Amphotericin, the control” for “The test”, “compound,” for “compound, Compound I,”, “512” for “128”, “10% DMSO” for “20% methanol”, “128” for “32”, “0.6” for “0.15”
as §3, §4

[5] = test system: Aspergillus fumigatus (MF 4839); assay: microbroth dilution assay (MIC), Aspergillus fumigatus (MF 4839); format: cell-based; conditions: Aspergillus fumigatus, 24 h, read-out: Minimum Inhibitory Concentration (MIC)
Procedure: as §1
as §2, with “μg/ml. […]” for “μg/ml.”
as §5

C. glabrata (MY1381) = assay: microbroth dilution assay (MIC/MFC), C. glabrata (MY1381); format: cell-based; conditions: Nakaseomyces glabratus, 24 h
Procedure: as §1, §2
as §2, with “Amphotericin, the control” for “The test”, “compound,” for “compound, Compound I,”, “512” for “128”, “10% DMSO” for “20% methanol”, “128” for “32”, “0.6” for “0.15”
as §3, §4

C. topicalis (MY1012) = assay: microbroth dilution assay (MIC/MFC), C. topicalis (MY1012); format: cell-based; conditions: 24 h
Procedure: as §1, §2
as §2, with “Amphotericin, the control” for “The test”, “compound,” for “compound, Compound I,”, “512” for “128”, “10% DMSO” for “20% methanol”, “128” for “32”, “0.6” for “0.15”
as §3, §4

C. albicans (CLY539) = assay: microbroth dilution assay (MIC/MFC), C. albicans (CLY539); format: cell-based; conditions: Candida albicans, 24 h
Procedure: as §1, §2
as §2, with “Amphotericin, the control” for “The test”, “compound,” for “compound, Compound I,”, “512” for “128”, “10% DMSO” for “20% methanol”, “128” for “32”, “0.6” for “0.15”
as §3, §4

S. cerevisiae (MY 2141) = assay: microbroth dilution assay (MIC/MFC), S. cerevisiae (MY 2141); format: cell-based; conditions: Saccharomyces cerevisiae
Procedure: as §1
as §2, with “μg/ml. […]” for “μg/ml.”
as §5

[6] = test system: C. guillermondii (MY 1019); assay: microbroth dilution assay (MIC/MFC), C. guillermondii (MY 1019); format: cell-based; conditions: 24 h
Procedure: as §1, §2
as §2, with “Amphotericin, the control” for “The test”, “compound,” for “compound, Compound I,”, “512” for “128”, “10% DMSO” for “20% methanol”, “128” for “32”, “0.6” for “0.15”
as §3, §4

C. tropicalis (MY1124) = assay: microbroth dilution assay (MIC/MFC), C. tropicalis (MY1124); format: cell-based; conditions: Candida tropicalis, 24 h
Procedure: as §1, §2
as §2, with “Amphotericin, the control” for “The test”, “compound,” for “compound, Compound I,”, “512” for “128”, “10% DMSO” for “20% methanol”, “128” for “32”, “0.6” for “0.15”
as §3, §4

[7] = test system: C. parapsilosis (MY 1010); assay: microbroth dilution assay (MIC/MFC), C. parapsilosis (MY 1010); format: cell-based; conditions: Lodderomyces parapsilosis, 24 h
Procedure: as §1, §2
as §2, with “Amphotericin, the control” for “The test”, “compound,” for “compound, Compound I,”, “512” for “128”, “10% DMSO” for “20% methanol”, “128” for “32”, “0.6” for “0.15”
as §3, §4

[8] = read-out: Minimum Fungicidal Concentration (MFC)
[9] = read-out: Minimum Inhibitory Concentration (MIC)

`C[C@@H]1[C@H](O)[C@@H](C)/C=C/C=C/C=C/C=C/C=C/C=C/C=C/[C@H](O[C@@H]2O[C@H](C)[C@@H](O)[C@H](N)[C@@H]2O)C[C@@H]2O[C@](O)(C[C@@H](O)C[C@@H](O)[C@H](O)CC[C@@H](O)C[C@@H](O)CC(=O)O[C@H]1C)C[C@H](O)[C@H]2C(=O)O` [Amphotericin B] gave an MFC [1, 8] of 2 µg/mL (≈ 2.16 µM), an MIC [1, 9] of 2 µg/mL (≈ 2.16 µM) and an MIC [2] of 1 µg/mL (≈ 1.08 µM). The MIC (A. fumigatus (5668)) was 2 µg/mL (≈ 2.16 µM), the MFC [3, 8] was 1 µg/mL (≈ 1.08 µM) and the MIC [3, 9] was 1 µg/mL (≈ 1.08 µM). For the same molecule, the MFC (C. albicans (CA2); [8]) was 1 µg/mL (≈ 1.08 µM), the MIC (C. albicans (CA2); [9]) was 1 µg/mL (≈ 1.08 µM) and the MFC [4, 8] was 1 µg/mL (≈ 1.08 µM). The MIC [4, 9] was 1 µg/mL (≈ 1.08 µM), the MIC [5] was 2 µg/mL (≈ 2.16 µM) and the MFC (C. glabrata (MY1381); [8]) was 2 µg/mL (≈ 2.16 µM). The MIC (C. glabrata (MY1381); [9]) was 2 µg/mL (≈ 2.16 µM), the MFC (C. topicalis (MY1012); [8]) was 16 µg/mL (≈ 17.3 µM) and the MIC (C. topicalis (MY1012); [9]) was 16 µg/mL (≈ 17.3 µM). For the same molecule, the MFC (C. albicans (CLY539); [8]) was 2 µg/mL (≈ 2.16 µM), the MIC (C. albicans (CLY539); [9]) was 1 µg/mL (≈ 1.08 µM) and the MIC (S. cerevisiae (MY 2141); 24 h, 35°-37° C., read-out: Minimum Inhibitory Concentration (MIC)) was 1 µg/mL (≈ 1.08 µM). The MFC (S. cerevisiae (MY 2141); no growth or ≤4 colonies on SDA after 24 h, read-out: Minimum Fungicidal Concentration (MFC)) was 1 µg/mL (≈ 1.08 µM), the MFC [6, 8] was 2 µg/mL (≈ 2.16 µM) and the MIC [6, 9] was 1 µg/mL (≈ 1.08 µM). For the same molecule, the MFC (C. tropicalis (MY1124); [8]) was 2 µg/mL (≈ 2.16 µM), the MIC (C. tropicalis (MY1124); [9]) was 2 µg/mL (≈ 2.16 µM) and the MFC [7, 8] was 1 µg/mL (≈ 1.08 µM). It also gave an MIC [7, 9] of 1 µg/mL (≈ 1.08 µM).
